Assay [1] has as its system inosinic acid dehydrogenase. The assay can be described thus: In vivo inosinic acid dehydrogenase activity. Set-up: species or system mouse. On the procedure:
(§1) CF1 male mice (~30 g) were implanted with 2×10^6 Ehrlich ascites tumor cells, intraperitoneally on Day 0. Compound I was suspended by homogenation in 0.05% polysorbate.80-water and administered intraperitoneally at 10 and 20 mg/kg for 9 days to determine its effectiveness for inhibition of tumor growth. Mice were sacrificed on Day 10, and the ascites fluid was collected from the peritoneal cavity. The volume and ascrit (packed cell volume) were determined for each animal and the percent inhibition of tumor growth was calculated. For the metabolic studies, mice were treated on Days 8 and 9 with 10 mg/kg of Compound I, intraperitoneally. […]
(§2) Carbamyl phosphate synthetase activity was determined using the reaction medium of Kalman et al [Am. […] Citrulline formed from ornithine was measured at 490 nm by the method of Archibald [J. Biol. Chem., 156, 121 (1944)]. […] The ^14 CO2 generated in 15 min was trapped in 1M KOH and counted. Thymidylate synthetase activity was determined using a post-mitochondrial supernatant (9000 g×10 min) and 5 μCi of 5-^3 H-deoxyuridine monophosphate (14 Ci/mmol) according to the method of Kampf et al [ J. Med. Chem., 19, 903 (1976)]. ^14 C-Formate incorporation into purines was determined by the method of Spassova et al [Biochem. Pharmacol., 25, 923 (1976)] using 0.5 μCi of ^14 C-formic acid (52.0 mCi/mmol). […] The Rf value for xanthine monophosphate was scraped and counted. […]

For assay [2], the target named is T1, aspartate carbamyl transferase (Mus musculus, UniProt B2RQC6).
T1 construct: ATCase domain of CAD
T1 sequence (B2RQC6 2-2225): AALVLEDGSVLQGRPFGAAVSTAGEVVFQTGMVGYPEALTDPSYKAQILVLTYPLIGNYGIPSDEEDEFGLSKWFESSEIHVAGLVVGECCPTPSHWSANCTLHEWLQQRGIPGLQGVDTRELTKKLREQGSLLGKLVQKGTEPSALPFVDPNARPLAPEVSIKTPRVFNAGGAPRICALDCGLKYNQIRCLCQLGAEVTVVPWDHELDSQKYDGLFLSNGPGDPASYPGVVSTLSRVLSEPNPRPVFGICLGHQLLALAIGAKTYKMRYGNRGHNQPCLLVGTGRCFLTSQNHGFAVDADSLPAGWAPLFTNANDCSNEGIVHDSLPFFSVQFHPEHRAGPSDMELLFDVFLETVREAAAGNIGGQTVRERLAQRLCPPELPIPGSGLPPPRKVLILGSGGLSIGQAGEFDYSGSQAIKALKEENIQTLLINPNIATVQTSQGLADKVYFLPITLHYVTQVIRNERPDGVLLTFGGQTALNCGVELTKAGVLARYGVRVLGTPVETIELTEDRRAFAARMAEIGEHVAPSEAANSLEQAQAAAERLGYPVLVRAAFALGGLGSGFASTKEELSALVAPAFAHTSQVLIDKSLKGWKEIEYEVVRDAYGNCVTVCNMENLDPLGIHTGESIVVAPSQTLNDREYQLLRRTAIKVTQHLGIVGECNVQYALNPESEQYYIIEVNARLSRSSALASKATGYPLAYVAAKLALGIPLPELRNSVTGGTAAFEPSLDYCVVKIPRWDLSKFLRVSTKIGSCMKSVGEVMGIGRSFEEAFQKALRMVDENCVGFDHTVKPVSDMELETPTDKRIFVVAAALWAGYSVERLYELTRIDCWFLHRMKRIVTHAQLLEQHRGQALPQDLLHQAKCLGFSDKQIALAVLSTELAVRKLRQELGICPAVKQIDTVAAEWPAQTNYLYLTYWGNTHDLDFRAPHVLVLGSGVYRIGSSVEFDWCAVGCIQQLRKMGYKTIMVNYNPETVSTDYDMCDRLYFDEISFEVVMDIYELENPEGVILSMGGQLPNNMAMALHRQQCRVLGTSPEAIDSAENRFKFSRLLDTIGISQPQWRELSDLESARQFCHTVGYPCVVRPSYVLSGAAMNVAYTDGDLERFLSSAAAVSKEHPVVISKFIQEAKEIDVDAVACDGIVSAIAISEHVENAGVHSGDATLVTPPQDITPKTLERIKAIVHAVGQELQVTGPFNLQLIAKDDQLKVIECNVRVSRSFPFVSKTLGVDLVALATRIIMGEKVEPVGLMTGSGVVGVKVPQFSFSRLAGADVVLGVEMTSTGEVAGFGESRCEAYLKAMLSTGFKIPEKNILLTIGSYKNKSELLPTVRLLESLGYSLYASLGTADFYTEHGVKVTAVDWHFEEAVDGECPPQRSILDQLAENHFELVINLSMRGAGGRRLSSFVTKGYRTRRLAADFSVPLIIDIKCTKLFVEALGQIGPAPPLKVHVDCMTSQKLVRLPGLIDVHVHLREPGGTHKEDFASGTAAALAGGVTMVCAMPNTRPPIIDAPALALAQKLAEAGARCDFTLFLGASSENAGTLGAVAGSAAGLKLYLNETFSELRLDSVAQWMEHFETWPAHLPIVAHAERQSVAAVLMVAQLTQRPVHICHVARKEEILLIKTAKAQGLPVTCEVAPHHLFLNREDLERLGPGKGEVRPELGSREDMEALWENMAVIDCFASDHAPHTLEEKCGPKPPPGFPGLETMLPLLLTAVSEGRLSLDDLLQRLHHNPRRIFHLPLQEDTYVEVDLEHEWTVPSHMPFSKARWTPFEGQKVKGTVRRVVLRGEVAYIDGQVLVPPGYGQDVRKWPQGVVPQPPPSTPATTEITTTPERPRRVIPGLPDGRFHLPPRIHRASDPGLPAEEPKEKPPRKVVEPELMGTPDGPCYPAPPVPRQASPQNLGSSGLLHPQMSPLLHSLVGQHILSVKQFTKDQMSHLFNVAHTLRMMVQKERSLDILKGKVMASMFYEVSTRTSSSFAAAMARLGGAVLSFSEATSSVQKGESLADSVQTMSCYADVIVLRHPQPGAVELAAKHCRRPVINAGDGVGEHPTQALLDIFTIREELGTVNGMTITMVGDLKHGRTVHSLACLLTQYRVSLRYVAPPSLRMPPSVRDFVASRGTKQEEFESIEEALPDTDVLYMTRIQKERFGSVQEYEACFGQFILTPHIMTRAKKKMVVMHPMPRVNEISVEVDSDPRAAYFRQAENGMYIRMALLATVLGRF
The assay can be described thus: In vitro aspartate carbamyl transferase activity. It counts as biochemical. Conditions: 0.25 to 1.0 mM. On the procedure: as §1, §2

Assay [3] deals with T2, carbamyl phosphate synthetase (Mus musculus, UniProt B2RQC6).
T2 construct: CPSase II domain of CAD; ornithine transcarbamylase used as coupling enzyme
T2 sequence (B2RQC6 2-2225): as above
The experiment in a line: In vitro carbamyl phosphate synthetase activity. Conditions: 0.25 to 1.0 mM. In kind it is biochemical. The method, then:
as §1, §2

In a further assay the target is T3, Acetyl CoA Carboxylase (Mus musculus, UniProt Q5SWU9).
T3 construct: 10% homogenates of CF1 male mouse liver; from tissue; host or cells: CF1 male mouse liver, 10% homogenate
The assay can be described thus: In vitro liver enzyme study: acetyl CoA carboxylase. Conditions: in vitro CF1 liver. In kind it is biochemical. On the procedure:
In vitro enzymatic studies were determined using 10% homogenates of CF1 male mouse liver with 50-200 μM of test drugs. In vivo enzymatic studies were determined using 10% homogenates of liver from CF1 male mice obtained after administering the agents for 16 days at a dose ranging from 2.5-20 mg/kg/day intraperitoneally. The liver homogenates for both in vitro and in vivo studies were prepared in 0.25M sucrose and 0.001M (ethylenedinitrilo)tetraacetic acid. Acetyl coenzyme A synthetase and adenosine triphosphate dependent citrate lyase activities were determined spectrophotometrically at 540 nm as the hydroxylamate of acetyl coenzyme A formed after 30 min at 37° C. Mitochondrial citrate exchange was determined by the procedure of Robinson et al [Eur. J. Biochem., 216, 63 (1970)] using ^14 C-sodium bicarbonate (41 mCi/mmol) incorporated into mitochondrial ^14 C-citrate after isolating rat mitochondria (9000 g×10 min) from the homogenates. The exchanges of the ^14 C-citrate were determined after incubating the mitochondrial fraction which was loaded with labeled citrate and test drugs for 10 min. Then the radioactivity was measured in the mitochondrial and supernantant fractions in scintillation fluid and expressed as a percentage. Cholesterol side chain oxidation was determined by the method of Kritchevsky and Tepper [Artherosclerosis, 18, 93 (1973)] using (26-^14 C) cholesterol (50 mCi/mmol) and mitochondria isolated from rat liver homogenates. […] Fatty acid synthetase activity was determined by the method of Brady et al [J. Biol. Chem., 235, 3093 (1960)] using [2-^14 C] malonyl-coenzyme A (37.5 mCi/mmol) which was incorporated into newly synthesized fatty acids that were extracted with ether and counted. Acyl transferase activity was determined with glycerol-3phosphate [L-2-^3 H(N)] […] HCl and counted. Phosphatidate phosphohydrolase activity was measured as the inorganic phosphate released after 30 min from phosphatidic acid by the method of Mavis et al [J. Lipid Res., 19, 467 (1978)]. […]

Like-named read-outs stand apart in the source and are kept apart here.

Turning to “{Cu[(CH3)3 N.BH2 CO2 ]2.(CH3)3 N.BH2 COOH} [Compound I]”, the “Inosinic acid dehydrogenase activity” value in assay [1] is “essentially not affected”; in assay [1] (10 mg/kg/day I.P. on Days 8 and 9), 100 ± 9 % Control. Also, the “aspartate carbamyl transferase inhibition” value in assay [2] is on record as “not inhibited”. Besides, the “carbamyl phosphate synthetase inhibition” value in assay [3] was “not inhibited”. Further, the results for the “Acetyl CoA Carboxylase” value on Acetyl CoA Carboxylase (50 μM), at Acetyl CoA Carboxylase (100 μM) and at Acetyl CoA Carboxylase (200 μM) were 96 ± 6 Percent Control, 93 ± 5 Percent Control and 92 ± 5 Percent Control, respectively.

The record behind these values is patent US4550186A, “Binuclear copper (II) carboxylates formed from amine-carboxyboranes” (Duke University, priority 1983, dated 1985).
